The values that follow come from US10654853B2, “Spiro-condensed pyrrolidine derivatives as deubiquitylating enzymes (DUB) inhibitors” (MISSION THERAPEUTICS LIMITED, priority 2016, dated 2020).

The IC50 is the concentration that inhibits the measured activity by half.

This assay has as its target Cezanne 1 (Homo sapiens (Human), UniProt Q6GQQ9). Briefly: Cezanne 1 biochemical IC50 assay (fluorescence polarisation, TAMRA labelled peptide linked to ubiquitin). The following applies: Cezanne 1 biochemical IC50 assay; 30 min pre-incubation, read after 2 hr at room temperature; read-out: IC50 range. How it is done:
The Cezanne 1 construct was PCR amplified and cloned into a pFLAG-CMV-6c vector (Sigma-Aldrich) with an N-terminal FLAG tag. HEK293T cells were transfected with FLAG-Cezanne 1 using TransIT-LT1 transfection reagent (Mirus) according to the manufacturer's instructions. Cells were harvested 48 hours after transfection. […] The resin was washed two times with low salt buffer and one time with high salt buffer (20 mM Tris, pH 7.5, 500 mM NaCl, 0.5 mM EDTA, 5 mM beta-mercaptoethanol, protease inhibitors (complete mini, Roche) and phosphatase inhibitors (PhosSTOP mini, Roche). To elute the bound Cezanne 1, elution buffer (10 mM Tris, pH 7.5, 150 mM NaCl, 0.5 mM EDTA, 10% glycerol, 0.5% NP40, 5 mM beta-mercaptoethanol, 0.15 mg/ml 3× FLAG peptide (Sigma-Aldrich)) was added to the resin and incubated at 4° C. for 2.5 hours while rotating. The resin was centrifuged at 4000 rpm for 30 seconds, and the supernatant containing purified FLAG-Cezanne 1 was removed and stored at −80° C. […] Dilution plates were prepared at 21 times the final concentration (2100 μM for a final concentration of 100 μM) in 50% DMSO in a 96-well polypropylene V-bottom plate (Greiner #651201). […] Reactions were performed in duplicate in black 384 well plates (small volume, Greiner 784076) in a final reaction volume of 21 μl. Either 1 μl of 50% DMSO or diluted compound was added to the plate. Cezanne 1 was diluted in reaction buffer (40 mM Tris, pH 7.5, 0.005% Tween 20, 0.5 mg/ml BSA, 5 mM—beta-mercaptoethanol) to the equivalent of 0.005 μl/well and 10 μl of diluted Cezanne 1 was added to the compound. Enzyme and compound were incubated for 30 min at room temp. Reactions were initiated by the addition of 50 nM of TAMRA labelled peptide linked to ubiquitin via an iso-peptide bond as fluorescence polarisation substrate. Reactions were read immediately after addition of substrate and following a 2 hr incubation at room temperature. Readings were performed on a Pherastar Plus (BMG Labtech). λ Excitation 540 nm; λ Emission 590 nm.
A general note: Fluorescence polarisation rises when a labelled molecule tumbles more slowly, as on binding a larger partner.

Chain of Cezanne 1 (Q6GQQ9 whole entry): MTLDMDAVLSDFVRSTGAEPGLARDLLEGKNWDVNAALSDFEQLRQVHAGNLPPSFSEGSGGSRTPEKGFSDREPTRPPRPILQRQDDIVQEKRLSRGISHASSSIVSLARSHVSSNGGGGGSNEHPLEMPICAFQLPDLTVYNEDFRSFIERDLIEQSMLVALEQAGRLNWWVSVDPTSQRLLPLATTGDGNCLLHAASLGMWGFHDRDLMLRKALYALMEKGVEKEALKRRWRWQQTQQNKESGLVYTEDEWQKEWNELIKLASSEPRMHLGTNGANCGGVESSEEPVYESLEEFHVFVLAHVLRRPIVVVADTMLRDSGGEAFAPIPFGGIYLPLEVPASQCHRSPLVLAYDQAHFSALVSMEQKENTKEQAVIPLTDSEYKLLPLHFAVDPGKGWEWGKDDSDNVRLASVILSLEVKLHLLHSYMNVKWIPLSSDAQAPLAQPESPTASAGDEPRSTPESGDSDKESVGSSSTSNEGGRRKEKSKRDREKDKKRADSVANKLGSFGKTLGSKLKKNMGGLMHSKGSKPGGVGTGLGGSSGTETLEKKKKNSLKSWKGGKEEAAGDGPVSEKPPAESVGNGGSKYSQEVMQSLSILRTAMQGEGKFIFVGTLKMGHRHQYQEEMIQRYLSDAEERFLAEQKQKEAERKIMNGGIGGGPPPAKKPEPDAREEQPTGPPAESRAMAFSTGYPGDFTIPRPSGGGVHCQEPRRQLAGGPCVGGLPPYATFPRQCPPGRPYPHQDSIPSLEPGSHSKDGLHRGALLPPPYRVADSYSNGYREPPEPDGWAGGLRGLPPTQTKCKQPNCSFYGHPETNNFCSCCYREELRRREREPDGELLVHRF

Regarding `N#CN1CC[C@@]2(C1)Oc1ncccc1NC2=O` [Example 65, (S)-2-Oxo-1,2-dihydrospiro[pyrido[2,3-b][1,4]oxazine-3,3′-pyrrolidine]-1′-carbonitrile], the IC50 was 1000 to 10000 nM.
On to `N#CN1CC[C@@]2(C1)Nc1ncccc1NC2=O` [Example 66, (S)-2-Oxo-1,4-dihydro-2H-spiro[pyrido[2,3-b]pyrazine-3,3′-pyrrolidine]-1′-carbonitrile], for which the IC50 lay within 100 to 1000 nM.
With `N#CN1CC[C@]2(Cc3cc(-c4ccccc4)ccc3NC2=O)C1` [Example 67, (R)-2′-Oxo-6′-phenyl-1′,4′-dihydro-2′H-spiro[pyrrolidine-3,3′-quinoline]-1-carbonitrile] the figure was 100 to 1000 nM; with `N#CN1CC[C@@]2(C1)Nc1ncc(-c3ccccc3)cc1NC2=O` [Example 68, (S)-2-Oxo-7-phenyl-1,4-dihydro-2H-spiro[pyrido[2,3-b]pyrazine-3,3′-pyrrolidine]-1′-carbonitrile], 100 to 1000 nM; with `N#CN1CC[C@@]2(C1)Oc1ncc(-c3cccc(F)c3)cc1NC2=O` [Example 69, (S)-7-(3-Fluorophenyl)-2-oxo-1,2-dihydrospiro[pyrido[2,3-b][1,4]oxazine-3,3′-pyrrolidine]-1′-carbonitrile], 100 to 1000 nM.
As for `N#Cc1ccc(-c2cnc3c(c2)NC(=O)[C@@]2(CCN(C#N)C2)O3)cc1` [Example 70, (S)-7-(4-Cyanophenyl)-2-oxo-1,2-dihydrospiro[pyrido[2,3-b][1,4]oxazine-3,3′-pyrrolidine]-1′-carbonitrile], the half-maximal inhibitory concentration (IC50) was 100 to 1000 nM.
Consider `N#Cc1cccc(-c2cnc3c(c2)NC(=O)[C@@]2(CCN(C#N)C2)O3)c1` [Example 71, (S)-7-(3-Cyanophenyl)-2-oxo-1,2-dihydrospiro[pyrido[2,3-b][1,4]oxazine-3,3′-pyrrolidine]-1′-carbonitrile], for which the half-inhibitory concentration (IC50) lay within 100 to 1000 nM.
As for `N#CN1CC[C@@]2(C1)Nc1ncc(-c3ccc(F)cc3)cc1NC2=O` [Example 72, (S)-7-(4-Fluorophenyl)-2-oxo-1,4-dihydro-2H-spiro[pyrido[2,3-b]pyrazine-3,3′-pyrrolidine]-1′-carbonitrile], the IC50 was in the range of 100 to 1000 nM.
Regarding `N#CN1CC[C@@]2(C1)Nc1ncc(-c3cccc(F)c3)cc1NC2=O` [Example 73, (S)-7-(3-Fluorophenyl)-2-oxo-1,4-dihydro-2H-spiro[pyrido[2,3-b]pyrazine-3,3′-pyrrolidine]-1′-carbonitrile], the IC50 lay within 100 to 1000 nM.
In the case of `N#CN1CC[C@@]2(C1)Oc1ncc(-c3ccc(F)cc3)cc1NC2=O` [Example 74, (S)-7-(4-Fluorophenyl)-2-oxo-1,2-dihydrospiro[pyrido[2,3-b][1,4]oxazine-3,3′-pyrrolidine]-1′-carbonitrile] it was 100 to 1000 nM; in that of `N#Cc1cccc(-c2cnc3c(c2)NC(=O)[C@@]2(CCN(C#N)C2)N3)c1` [Example 75, (S)-7-(3-Cyanophenyl)-2-oxo-1,4-dihydro-2H-spiro[pyrido[2,3-b]pyrazine-3,3′-pyrrolidine]-1′-carbonitrile], 100 to 1000 nM.
In the case of `C[C@H]1NC(=O)C2(CCN(C#N)C2)NC1=O` (stereo partly drawn) [Example 76, (8R)-8-Methyl-7,10-dioxo-2,6,9-triazaspiro[4.5]decane-2-carbonitrile], the half-inhibitory concentration (IC50) was 1000 to 10000 nM.
Regarding `N#CN1CCC2(C1)NC(=O)CNC2=O` (stereo not drawn) [Example 77, 7,10-Dioxo-2,6,9-triazaspiro[4.5]decane-2-carbonitrile], the IC50 was 1000 to 10000 nM.
With `C[C@@H]1NC(=O)C2(CCN(C#N)C2)NC1=O` (stereo partly drawn) [Example 78, (8S)-8-Methyl-7,10-dioxo-2,6,9-triazaspiro[4.5]decane-2-carbonitrile], the half-inhibitory concentration (IC50) was in the range of 1000 to 10000 nM.
With `N#CN1CCC2(C1)NC(=O)C(c1ccccc1)NC2=O` (stereo not drawn) [Example 79, 7,10-Dioxo-8-phenyl-2,6,9-triazaspiro[4.5]decane-2-carbonitrile] the figure was 1000 to 10000 nM; with `CCC1CC2(CCN(C#N)C2)C(=O)N1` (stereo not drawn) [Example 80, 8-Ethyl-6-oxo-2,7-diazaspiro[4.4]nonane-2-carbonitrile], more than 10000 nM.
With `N#CN1CCC2(CC(Cc3ccccc3)NC2=O)C1` (stereo not drawn) [Example 81, 8-Benzyl-6-oxo-2,7-diazaspiro[4.4]nonane-2-carbonitrile] the figure was 1000 to 10000 nM; with `N#CN1CCC2(C1)OCc1ccccc1NC2=O` (stereo not drawn) [Example 85, 2-Oxo-1,5-dihydro-2H-spiro[benzo[e][1,4]oxazepine-3,3′-pyrrolidine]-1′-carbonitrile], 1000 to 10000 nM.
With `N#CN1CCC2(CNc3ncccc3NC2=O)C1` (stereo not drawn) [Example 86, 2-Oxo-1,2,4,5-tetrahydrospiro[pyrido[2,3-b][1,4]diazepine-3,3′-pyrrolidine]-1′-carbonitrile] the figure was 100 to 1000 nM; with `CC1(c2ccccc2)NC(=O)C2(CCN(C#N)C2)NC1=O` (stereo not drawn) [Example 87, 8-Methyl-7,10-dioxo-8-phenyl-2,6,9-triazaspiro[4.5]decane-2-carbonitrile], 100 to 1000 nM.
In the case of `N#CN1CCC2(Cc3ccc(-c4cccc(OC(F)(F)F)c4)cc3NC2=O)C1` (stereo not drawn) [Example 88, 2′-Oxo-7′-(3-(trifluoromethoxy)phenyl)-1′,4′-dihydro-2′H-spiro[pyrrolidine-3,3′-quinoline]-1-carbonitrile], the IC50 was 1000 to 10000 nM.
Turning to `CN(C)C(=O)c1ccc(-c2ccc3c(c2)NC(=O)C2(CCN(C#N)C2)C3)cc1` (stereo not drawn) [Example 89, 4-(1-Cyano-2′-oxo-1′,4′-dihydro-2′H-spiro[pyrrolidine-3,3′-quinolin]-7′-yl)-N,N-dimethylbenzamide], the IC50 lay within 1000 to 10000 nM.
With `Cn1nccc1-c1ccc2c(c1)CC1(CCN(C#N)C1)C(=O)N2` (stereo not drawn) [Example 94, 6′-(1-Methyl-1H-pyrazol-5-yl)-2′-oxo-1′,4′-dihydro-2′H-spiro[pyrrolidine-3,3′-quinoline]-1-carbonitrile], the IC50 was 100 to 1000 nM.
As for `N#CN1CCC2(Cc3cc(-c4cccc(OC(F)(F)F)c4)ccc3NC2=O)C1` (stereo not drawn) [Example 95, 2′-Oxo-6′-(3-(trifluoromethoxy)phenyl)-1′,4′-dihydro-2′H-spiro[pyrrolidine-3,3′-quinoline]-1-carbonitrile], the IC50 lay within 100 to 1000 nM.
With `N#CN1CCC2(Cc3cc(-c4ccc(Oc5ccccc5)cc4)ccc3NC2=O)C1` (stereo not drawn) [Example 96, 2′-Oxo-6′-(4-phenoxyphenyl)-1′,4′-dihydro-2′H-spiro[pyrrolidine-3,3′-quinoline]-1-carbonitrile], the half-maximal inhibitory concentration (IC50) lay in the range of 1000 to 10000 nM.
With `Cn1cc(-c2ccc3c(c2)CC2(CCN(C#N)C2)C(=O)N3)cn1` (stereo not drawn) [Example 97, 6′-(1-Methyl-1H-pyrazol-4-yl)-2′-oxo-1′,4′-dihydro-2′H-spiro[pyrrolidine-3,3′-quinoline]-1-carbonitrile] the figure was 100 to 1000 nM.
In the case of `CNC(=O)c1ccc(-c2ccc3c(c2)CC2(CCN(C#N)C2)C(=O)N3)cn1` (stereo not drawn) [Example 98, 5-(1-Cyano-2′-oxo-1′,4′-dihydro-2′H-spiro[pyrrolidine-3,3′-quinolin]-6′-yl)-N-methylpicolinamide] it was 100 to 1000 nM; in that of `CNC(=O)c1ccc(-c2ccc3c(c2)CC2(CCN(C#N)C2)C(=O)N3)cc1` (stereo not drawn) [Example 100, 4-(1-Cyano-2′-oxo-1′,4′-dihydro-2′H-spiro[pyrrolidine-3,3′-quinolin]-6′-yl)-N-methylbenzamide], 100 to 1000 nM.
With `COc1ccc(C(C)C)cc1-c1ccc2c(c1)CC1(CCN(C#N)C1)C(=O)N2` (stereo not drawn) [Example 101, 6′-(5-Isopropyl-2-methoxyphenyl)-2′-oxo-1′,4′-dihydro-2′H-spiro[pyrrolidine-3,3′-quinoline]-1-carbonitrile], the IC50 fell in the range of 100 to 1000 nM.
With `N#CN1CCC2(Cc3cc(-c4cccc(OCc5ccccc5Cl)c4)ccc3NC2=O)C1` (stereo not drawn) [Example 102, 6′-(3-((2-Chlorobenzyl)oxy)phenyl)-2′-oxo-1′,4′-dihydro-2′H-spiro[pyrrolidine-3,3′-quinoline]-1-carbonitrile] the figure was 1000 to 10000 nM; with `COc1ccc(-c2ccc3c(c2)CC2(CCN(C#N)C2)C(=O)N3)cn1` (stereo not drawn) [Example 103, 6′-(6-Methoxypyridin-3-yl)-2′-oxo-1′,4′-dihydro-2′H-spiro[pyrrolidine-3,3′-quinoline]-1-carbonitrile], 100 to 1000 nM.
As to `CC(C)Oc1ccc(F)cc1-c1ccc2c(c1)CC1(CCN(C#N)C1)C(=O)N2` (stereo not drawn) [Example 104, 6′-(5-Fluoro-2-isopropoxyphenyl)-2′-oxo-1′,4′-dihydro-2′H-spiro[pyrrolidine-3,3′-quinoline]-1-carbonitrile], the half-inhibitory concentration (IC50) lay in the range of 100 to 1000 nM.
Consider `CN1CCN(C(=O)c2ccc(-c3ccc4c(c3)CC3(CCN(C#N)C3)C(=O)N4)cc2)CC1` (stereo not drawn) [Example 106, 6′-(4-(4-Methylpiperazine-1-carbonyl)phenyl)-2′-oxo-1′,4′-dihydro-2′H-spiro[pyrrolidine-3,3′-quinoline]-1-carbonitrile], for which the half-inhibitory concentration (IC50) lay in the range of 1000 to 10000 nM.
